Source: patent US9708265B2, “Urethanes, ureas, amidines and related inhibitors of factor Xa” (priority 2010, dated 2017)
pKi: −log10 of the molar value.

What was measured:
human blood plasma = assay: Prothrombin time in human blood plasma in vitro (Diahem P kit); conditions: 3 min incubation, average of 3 measurements
Protocol: For some compounds depicted in the above examples, there has been measured the concentration of these compounds in human blood plasma, at which the prothrombin time of plasma is twice as much—2PT. The measurements were carried out with the aid of a Diahem P kit (NPO Renam, www.renam.ru) by a method described in the instruction for users of the kit. The active compound was dissolved in a blood plasma provided in the kit and was incubated for 3 min. The measurements were carried out with a Sysmex CA 50 instrument. For each concentration, there were taken 3 measurements and the result was averaged.

factor Xa = factor Xa (Homo sapiens, UniProt P00742); assay: Activity towards factor Xa in vitro (initial rate of decomposition of substrate S-2222); format: biochemical; conditions: substrate S-2222 164 μM, room temperature, pH 7.5, 10 min preincubation; Ki calculated from IC50
Protocol: For some compounds depicted in the above examples, there has been measured a constant of activity of these substances towards the factor Xa in vitro—Ki. The measurements were carried out kinetically, in terms of the initial rate of decomposition of the substrate S-2222 by the protein. The measurements were carried out at room temperature in 2 ml rectangular quartz cuvettes. In the reaction there was used a solution: 50 mM Tris-HCl, 150 mM NaCl, 2.5 mM CaCl2, and 0.1% PEG 6000, pH 7.5, factor Xa […], S-2222 164 μM. The standard least-squares method was used for determining Km for certain concentrations of the protein and substrate. Before the reaction, the protein and the active agent in the solution were under thermostatic control for 10 min; then the substrate was added and the reaction was initiated. The reaction rate was measured with a Specord M80 instrument from a change in the light absorption at a wavelength of 405 nm. The IC50 values were determined from the experimentally obtained dependence of the initial rates on the concentration of the inhibitor (active agent). The Ki values were calculated from the concentrations of the protein, substrate, and inhibitors; the IC50 values, by the method described in (1) Jordan, S. P.; Waxman, L.; Smith, D. E.; Vlasik, G. P. Biochemistry 1990, 29, 11095 and (2) Morrison, J. F. Biochim Biophys. Acta 1969, 185, 269.

factor Xa, sequence (P00742 235-488 limits assumed): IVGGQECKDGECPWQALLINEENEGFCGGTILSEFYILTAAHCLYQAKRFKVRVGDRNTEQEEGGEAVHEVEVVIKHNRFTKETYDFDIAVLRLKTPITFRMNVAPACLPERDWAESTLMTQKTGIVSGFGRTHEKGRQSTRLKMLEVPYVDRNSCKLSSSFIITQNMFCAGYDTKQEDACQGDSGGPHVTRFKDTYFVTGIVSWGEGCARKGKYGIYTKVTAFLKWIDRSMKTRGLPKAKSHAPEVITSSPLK
factor Xa, sequence (P00742 41-179 partner limits assumed): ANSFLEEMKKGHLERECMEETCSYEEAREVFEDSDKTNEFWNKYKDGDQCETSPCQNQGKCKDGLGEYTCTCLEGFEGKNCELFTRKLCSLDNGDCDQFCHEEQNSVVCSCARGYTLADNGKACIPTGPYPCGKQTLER

With `CNC(=N)N(C)c1ccc(C(=O)Nc2ccc(Cl)cc2C(=O)Nc2ccc(Cl)cn2)cc1` [Example 16] the “2 × PT (concentration at which the prothrombin time of plasma is twice as much)” value (shortened to “2 × PT”) (human blood plasma) was 1.5 µM and the pKi (factor Xa) was 9.30.
`CNC(=O)N(C)c1ccc(C(=O)Nc2ccc(Cl)cc2C(=O)Nc2ccc(Cl)cn2)c(OCCCN)c1` [Example 20] was tested, and the “2 × PT” value (human blood plasma) was 1.0 µM and the pKi (factor Xa) was 9.70.
`CNC(=N)N(C)c1ccc(C(=O)Nc2ccc(C)cc2C(=O)Nc2ccc(Cl)cn2)cc1` [Example 15] was tested, and the “2 × PT” value (human blood plasma) was 1.5 µM and the pKi (factor Xa) was 9.30.
In the case of `CC(=N)N(C)c1ccc(C(=O)Nc2ccccc2C(=O)Nc2ccc(Cl)cn2)cc1` [Example 1, N-(5-chloropyridine-2-yl)-2-[(4-ethaneimidoyl-methylaminophenylcarbonyl)amino]benzamide], the pKi (factor Xa) was 8.70.
In the case of `COc1ccc(NC(=O)c2ccc(N(C)C(C)=N)cc2OCCCN)c(C(=O)Nc2ccc(Cl)cn2)c1` [Example 8, N-(5-chloropyridine-2-yl)2-[4(ethaneimidoylmethylamino)-2-(3-aminopropoxy)phenylcarbonyl-amino]-5-methoxybenzamide], the “2 × PT” value (human blood plasma) was 0.2 µM and the pKi (factor Xa) was 9.30.
For `CC(=N)N(C)c1ccc(C(=O)Nc2ccccc2C(=O)Nc2ccc(Cl)cn2)c(OCCCN)c1` [Example 5, N-(5-chloropyridine-2-yl)-2-[4-(ethaneimidoylmethylamino)-2-(3-aminopropoxy)phenylcarbonyl-amino]benzamide], the “2 × PT” value (human blood plasma) was 0.2 µM and the pKi (factor Xa) was 9.30.
`COc1ccc(NC(=O)c2ccc(N(C)C(C)=N)cc2)c(C(=O)Nc2ccc(Cl)cn2)c1` [Example 4, N-(5-chloropyridine-2-yl)-2-[(4-ethaneimidoyl-methyl-aminophenylcarbonyl)amino]5-methoxybenzamide] showed a pKi (factor Xa) of 9.00.
For `CC(=N)N(C)c1ccc(C(=O)Nc2ccc(Cl)cc2C(=O)Nc2ccc(Cl)cn2)c(OCCCN)c1` [Example 7, N-(5-chloropyridine-2-yl)-2-[4-(ethaneimidoylmethylamino)-2-(3-aminopropoxy)phenylcarbonylamino]-5-chlorobenzamide], the pKi (factor Xa) was 9.30.
In the case of `CC(=N)N(C)c1ccc(C(=O)Nc2ccc(C)cc2C(=O)Nc2ccc(Cl)cn2)c(OCCCNC(C)=O)c1` [Example 13, N-(5-chloropyridine-2-yl)-2-[4-(ethaneimidoylmethylamino)-2-(3-(acetylamino)propoxy)phenylcarbonylamino]-5-methylbenzamide], the “2 × PT” value (human blood plasma) was 1.5 µM and the pKi (factor Xa) was 9.30.
In the case of `CC(=N)N(C)c1ccc(C(=O)Nc2ccc(Cl)cc2C(=O)Nc2ccc(Cl)cn2)cc1` [Example 3, N-(5-chloropyridine-2-yl)-2-[(4-ethaneimidoyl-methyl-aminophenylcarbonyl)amino]-5-chlorobenzamide], the pKi (factor Xa) was 9.52.
For `CNC(=O)N(C)c1ccc(C(=O)Nc2ccc(C)cc2C(=O)Nc2ccc(Cl)cn2)c(OCCCN)c1` [Example 19], the “2 × PT” value (human blood plasma) was 1.0 µM and the pKi (factor Xa) was 9.70.
In the case of `CC(=N)N(C)c1ccc(C(=O)Nc2ccc(Cl)cc2C(=O)Nc2ccc(Cl)cn2)c(F)c1` [Example 12], the “2 × PT” value (human blood plasma) was 0.09 µM and the pKi (factor Xa) was 9.00.
With `CC(=N)N(C)c1ccc(C(=O)Nc2ccc(C)cc2C(=O)Nc2ccc(Cl)cn2)c(OCCCN)c1` [Example 6] the “2 × PT” value (human blood plasma) was 0.2 µM and the pKi (factor Xa) was 9.30.
`CC(=N)N(C)c1cc(F)c(C(=O)Nc2ccc(Cl)cc2C(=O)Nc2ccc(Cl)cn2)c(OCCCN)c1` [Example 10, N-(5-chloropyridine-2-yl)-2-[2-(3-aminopropoxy)-6-fluoro-4(ethaneamidoylmethylamino)phenylcarbonylamino]-5-chlorobenzamide] was tested, and the “2 × PT” value (human blood plasma) was 0.15 µM and the pKi (factor Xa) was 9.40.
Work on `CNC(=O)N(C)c1ccc(C(=O)Nc2ccc(Cl)cc2C(=O)Nc2ccc(Cl)cn2)cc1` [Example 17, N-(5-chloropyridine-2-yl)-2-[(4-methyl(methylcarbamoyl)aminophenylcarbonyl)amino]-5-chlorobenzamide] yielded a pKi (factor Xa) of 9.82.
With `CC(=N)N(C)c1cc(F)c(C(=O)Nc2ccc(C)cc2C(=O)Nc2ccc(Cl)cn2)c(OCCCN)c1` [Example 9, N-(5-chloropyridine-2-yl)-2-[4-(ethaneimidoylmethylamino)-2-(3-aminopropoxy)-6-fluorophenylcarbonylamino]-5-methylbenzamide] the “2 × PT” value (human blood plasma) was 0.15 µM and the pKi (factor Xa) was 9.40.
Molecule `CC(=N)N(C)c1ccc(C(=O)Nc2ccc(C)cc2C(=O)Nc2ccc(Cl)cn2)cc1` [Example 2, N-(5-chloropyridine-2-yl)-2-[(4-ethaneimidoyl-methyl-aminophenylcarbonyl)amino]5-methylbenzamide] has a pKi (factor Xa) of 9.30.
In the case of `CC(=N)N(C)c1ccc(C(=O)Nc2ccc(C)cc2C(=O)Nc2ccc(Cl)cn2)c(F)c1` [Example 11], the “2 × PT” value (human blood plasma) was 0.09 µM and the pKi (factor Xa) was 9.10.
For `COC(=N)N(C)c1ccc(C(=O)Nc2ccc(C)cc2C(=O)Nc2ccc(Cl)cn2)cc1` [Example 14, N-(5-chloropyridine-2-yl)-2-[(4-(imino(methoxy)methyl)(methyl)aminophenylcarbonyl)amino]5-methylbenzamide], the pKi (factor Xa) was 8.70.
`CNC(=O)N(C)c1ccc(C(=O)Nc2ccc(C)cc2C(=O)Nc2ccc(Cl)cn2)cc1` [Example 18] was tested, and the “2 × PT” value (human blood plasma) was 3.0 µM and the pKi (factor Xa) was 9.82.
